Experimental data reported in patent US12534762B2, “Treating atopic dermatitis by targeting the WNT pathway” (Children's Medical Center Corporation, priority 2018, dated 2026).
Entries after “also recorded” stand apart in the source; their conditions may differ. One block for each compound: values may come before it. Peptide text beside a SMILES is read from it. * marks the point of attachment. Cbz = O=C(OCc1ccccc1)*

Experiments:
[1] = tested on: FZD5; experiment: Immunoblot of FZD5 (immature and mature forms) with lysosome/proteasome inhibitors; type: cell-based, human; conditions: HEK293T cells; for TMEM79-induced degradation of immature FZD5: TMEM79 overexpressed; for levels of immature and mature forms of FZD5: absence or presence of TMEM79
Procedure: Cell culture, immunofluorescence, RNA interference and dual luciferase assay. HEK293T cells (ATCC #CRL-11268) and its derivatives were maintained in DMEM supplemented with 10% FBS, penicillin, and streptomycin. ZRKO (ZNRF3 and RNF43 double knockout) cell line was a gift from F. Cong. The FZD null cell line (Fz1-10 knockout) was a gift from B. Vanhollebeke. For immunofluorescence, HEK293T cells were grown on poly-L-lysine-coated glass coverslips. Cells were transfected with Snap-FZD5 and after 24 hours washed with PBS and fixed with 4% paraformaldehyde for 10 min at room temperature. The cells were labeled with 1 μM SNAP-Surface® 488 (BioLabs) for 15 min at room temperature. To visualize endogenous TMEM79, PDI, TGN46 and EEA1, cells were permeabilized with 0.2% Triton X-100 in PBS for 5 min, blocked with 10% normal goat serum and then incubated with respective antibodies for 1 hour at room temperature followed by incubation with secondary antibodies (Alexa Fluor 594 goat anti-rabbit immunoglobulin and Alexa Fluor 488 goat anti-mouse immunoglobulin, Invitrogen). Cells were mounted in Prolong Diamond Antifade Mountant with DAPI (Thermofisher Scientific) and imaged using a Zeiss LSM700 confocal microscope. siRNA transfection was done using Lipofectamine RNAiMAX (Thermofisher Scientific, #13778075). Duplex siRNAs targeting TMEM79 and ZNRF3 were purchased from Sigma. The sequences are as follows: TMEM79-1, 5-[…]dTdT-3 (SEQ ID NO: 19), TMEM79-2, 5-CCAUGAGUUCCCGCCUGAUdTdT-3 (SEQ ID NO: 20). ZNRF3, 5-[…]dTdT-3 (SEQ ID NO: 21). For Top-Flash reporter assay, cells were transduced sequentially with Supertopflash (7TFP, Addgene) and EF1α-Renilla lentiviruses. Cells were plated in 24 well plates and transfected the following day in triplicate using FuGENE HD (Promega, #E2312). Dual luciferase reporter assays were performed using Dual-Luciferase® Reporter Assay System (Promega, #E1960) according to manufacturer's instruction. Representative results are shown from one of three (or more) independent experiments. Immunoblotting, cell surface protein labeling and immunoprecipitation. Total cell lysates in NP40 lysis buffer (50 mM Tris, pH 7.5, 150 mM NaCl, 1 mM EDTA, 1% NP40, 10% glycerol, 10 mM NaF, and protease inhibitor cocktail, pH=7.4) were prepared by gentle rotating at 4° C., followed by centrifugation at top speed for 10 min at 4° C. Samples were run on a SDS-PAGE and transferred to Immobilon-P membrane. To isolate the cytoplasmic fraction of β-catenin, cells were incubated with 0.015% digitonin (in PBS supplemented protease inhibitor cocktail) by gentle rotating at 4° C. for 10 min. Indirect immunochemistry using a secondary antibody conjugated with horseradish peroxidase was visualized using ECL reagents on LAS-4000 imager (FujiFilm). Cell surface proteins were biotinylated using EZ-LinkTMSulfo-NHS—SS-Biotin (Thermo Fisher Scientific) according to manufacturer's protocol. Biotinylated proteins were enriched by Pierce® Streptavidin agarose resins. For immunoprecipitation, transfected HEK293T cells were lysed in NP40 lysis buffer. Cell lysates were incubated with antibody conjugated Agarose beads (Pierce™ Anti-c-Myc Agarose, #20168; Pierce™ Anti-HA Agarose, #26181; Anti-Flag M2 affinity gel, Sigma, A2220; Anti-V5 Agarose Affinity Gel, Sigma, A7345) at 4° C. over night. Beads were washed with lysis buffer 5 times and proteins were eluted in 2× sample buffer.

[2] = tested on: β-catenin; experiment: Immunoblot of cytosolic β-catenin after siRNA depletion of TMEM79 or ZNRF3; type: cell-based, human; conditions: HEK293T cells
Procedure: (§1) Cell culture, immunofluorescence, RNA interference and dual luciferase assay. HEK293T cells (ATCC #CRL-11268) and its derivatives were maintained in DMEM supplemented with 10% FBS, penicillin, and streptomycin. ZRKO (ZNRF3 and RNF43 double knockout) cell line was a gift from F. Cong. The FZD null cell line (Fz1-10 knockout) was a gift from B. Vanhollebeke. For immunofluorescence, HEK293T cells were grown on poly-L-lysine-coated glass coverslips. Cells were transfected with Snap-FZD5 and after 24 hours washed with PBS and fixed with 4% paraformaldehyde for 10 min at room temperature. The cells were labeled with 1 μM SNAP-Surface® 488 (BioLabs) for 15 min at room temperature. To visualize endogenous TMEM79, PDI, TGN46 and EEA1, cells were permeabilized with 0.2% Triton X-100 in PBS for 5 min, blocked with 10% normal goat serum and then incubated with respective antibodies for 1 hour at room temperature followed by incubation with secondary antibodies (Alexa Fluor 594 goat anti-rabbit immunoglobulin and Alexa Fluor 488 goat anti-mouse immunoglobulin, Invitrogen). Cells were mounted in Prolong Diamond Antifade Mountant with DAPI (Thermofisher Scientific) and imaged using a Zeiss LSM700 confocal microscope. siRNA transfection was done using Lipofectamine RNAiMAX (Thermofisher Scientific, #13778075). Duplex siRNAs targeting TMEM79 and ZNRF3 were purchased from Sigma. […]

[3] = tested on: phosphorylated LRP6 and phosphorylated DVL; experiment: Immunoblot of phosphorylated LRP6 and DVL2 in T79KO and ZRKO cells; type: cell-based, human
Procedure: as §1

[4] = tested on: Wnt/β-catenin signaling; experiment: Top-Flash dual luciferase reporter assay; type: cell-based, human; conditions: HEK293T cells
Procedure: as §1

[5] = tested on: ma/ma mice; experiment: Topical LGK974 cream on Tmem79 ma/ma mice, AD phenotypes; type: in vivo, mouse; conditions: topical cream twice daily, dose to be determined empirically
Text: PORCUPINE (PORCN) is an ER acyl-transferase specifically required for biogenesis and secretion of all WNT proteins. A diverse group of small molecules, referred to as IWP2, LGK974, and C59, each binds to and inhibits PORCN, thereby blocking WNT production. LGK974 and C59 are in phase I clinical trials for cancers that rely on autocrine or local WNT production (Proffitt, K. D., et al., Cancer Res, 2013, 73 (2): p. 502-7; Jiang, X., et al., Proc Natl Acad Sci USA, 2013. 110 (31): p. 12649-54). […] 111 (6): p. 2325-30; Apelian, H. M. C., NJ), Coffin-beach, David (Kendall Park, NJ), Huq, Abu S. (Plainsboro, NJ), Pharmaceutical composition of florfenicol, in U.S. Pat. No. 5,082,862, S. Corporation, January 1992; Malook, S. U. N., GB5), Boon, Peter F. G. (Horsham, GB2), Morgan, James P. (Navan, IE), Method of reducing the swelling or pain associated with antibiotics compositions, in U.S. Pat. No. 4,772,460, L. Bimeda Research and Development, September 1988.). […]
ma ma mice in C57BL/6 have been used as a reliable model for human AD and will be housed under the SPF (specific pathogen-free) conditions at BCH, and analyzed at 2, 4, and 8 weeks for skin phenotypes as described (Sasaki, T., et al., J Allergy Clin Immunol, 132 (5): p. 1111-1120 e4, 2013; Saunders, S. P., et al., J Allergy Clin Immunol, 132 (5): p. 1121-9, 2013). […]

Compound: CO/C1=C\C(C)=C\[C@@H](C)[C@@H](O)[C@@H](C)C/C(C)=C/C=C/[C@H](OC)[C@@H]([C@@H](C)[C@@H](O)[C@H](C)[C@@]2(O)C[C@@H](O)[C@H](C)[C@@H](C(C)C)O2)OC1=O [Bafilomycin A1]
- TMEM79-induced lysosomal degradation of FZD5 [1]: prevented
- TMEM79-induced degradation of immature FZD5 [1]: inhibited
- TMEM79-induced degradation of immature FZD5 ([1]; listed as Baf A1): blocked
- levels of immature and mature forms of FZD5 [1]: elevated levels
- levels of immature and mature forms of FZD5 ([1]; listed as BAF A1): increased

- TOP-Flash reporter induction by USP8C ([4]; USP8C transfected): abolished; also recorded: inhibited
- elevated levels of TOP-Flash caused by depletion of TMEM79 or ZNRF3 ([4]; siRNA depletion): abolished; also recorded: suppressed
Compound: Cc1ccc2nc(NC(=O)CSc3nc4c(c(=O)n3-c3ccccc3)SCC4)sc2c1 [IWP-2]
- elevated levels of β-catenin protein caused by depletion of TMEM79 or ZNRF3 [2]: prevented; also recorded: suppressed
- elevated levels of phosphorylated LRP6 and phosphorylated DVL [3]: inhibited; also recorded: suppressed

Compound: Cc1cc(-c2ncc(CC(=O)Nc3ccc(-c4cnccn4)cn3)cc2C)ccn1 [LG974]
- AD phenotypes of ma mice [5]: ameliorated

Compound: CC(C)C[C@@H](C=O)NC(=O)[C@H](CC(C)C)NC(=O)[C@H](CC(C)C)NC(=O)OCc1ccccc1 [MG132] (Cbz-Leu-Leu-Leu-aldehyde)
- levels of immature and mature forms of FZD5 [1]: did not affect
